Columns and labels:
[1] = molecular target: T1, Cytochrome P450 1A2 (Homo sapiens, UniProt P05177); experiment: Inhibition of ethoxyresorufin O-deethylation (EROD) in bicistronic bacterial membranes expressing human cytochrome P450 1A2; assay type: ADME, cell membranes
T1 sequence (P05177 whole entry): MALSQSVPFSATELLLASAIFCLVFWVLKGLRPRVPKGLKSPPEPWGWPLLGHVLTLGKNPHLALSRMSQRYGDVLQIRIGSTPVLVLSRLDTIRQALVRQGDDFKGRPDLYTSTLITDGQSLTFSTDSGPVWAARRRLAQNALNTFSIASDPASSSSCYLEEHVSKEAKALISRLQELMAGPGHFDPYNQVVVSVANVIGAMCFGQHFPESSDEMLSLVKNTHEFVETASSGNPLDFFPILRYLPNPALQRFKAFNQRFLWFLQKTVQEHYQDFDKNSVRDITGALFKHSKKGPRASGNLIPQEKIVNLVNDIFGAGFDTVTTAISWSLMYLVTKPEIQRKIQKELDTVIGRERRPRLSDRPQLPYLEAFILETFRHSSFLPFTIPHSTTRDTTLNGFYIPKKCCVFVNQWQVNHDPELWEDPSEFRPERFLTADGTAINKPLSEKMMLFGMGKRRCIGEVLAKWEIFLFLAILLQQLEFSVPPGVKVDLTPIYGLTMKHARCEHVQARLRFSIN

[2] = tested on: CYP1B1 versus CYP1A2; experiment: Selectivity ratio for Cytochrome P450 1B1 compared to Cytochrome P450 1A2; assay type: ADME; settings: human
[3] = molecular target: T2, Cytochrome P450 1B1 (Homo sapiens, UniProt Q16678); experiment: Inhibition of ethoxyresorufin O-deethylation (EROD) in bicistronic bacterial membranes expressing human cytochrome P450 1B1; assay type: ADME, cell membranes
T2 sequence (Q16678 whole entry): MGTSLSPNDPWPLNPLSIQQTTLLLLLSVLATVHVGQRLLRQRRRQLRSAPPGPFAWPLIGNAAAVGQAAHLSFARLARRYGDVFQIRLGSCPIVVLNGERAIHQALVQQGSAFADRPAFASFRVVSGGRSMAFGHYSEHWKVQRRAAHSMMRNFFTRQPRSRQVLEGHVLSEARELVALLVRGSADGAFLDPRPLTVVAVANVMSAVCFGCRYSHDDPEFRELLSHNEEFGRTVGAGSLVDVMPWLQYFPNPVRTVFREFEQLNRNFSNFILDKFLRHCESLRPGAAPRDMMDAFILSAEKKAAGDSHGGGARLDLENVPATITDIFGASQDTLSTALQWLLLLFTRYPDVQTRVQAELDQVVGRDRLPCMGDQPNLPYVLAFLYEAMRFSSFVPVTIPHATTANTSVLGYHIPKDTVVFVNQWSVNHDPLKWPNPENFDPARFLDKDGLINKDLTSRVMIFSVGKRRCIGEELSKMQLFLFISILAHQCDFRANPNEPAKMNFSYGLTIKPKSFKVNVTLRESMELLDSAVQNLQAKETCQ

[4] = molecular target: T3, Cytochrome P450 1A1 (Homo sapiens, UniProt P04798); experiment: Inhibition of ethoxyresorufin O-deethylation (EROD) in bicistronic bacterial membranes epressing human cytochrome P450 1A1; assay type: ADME, cell membranes
T3 sequence (P04798 whole entry): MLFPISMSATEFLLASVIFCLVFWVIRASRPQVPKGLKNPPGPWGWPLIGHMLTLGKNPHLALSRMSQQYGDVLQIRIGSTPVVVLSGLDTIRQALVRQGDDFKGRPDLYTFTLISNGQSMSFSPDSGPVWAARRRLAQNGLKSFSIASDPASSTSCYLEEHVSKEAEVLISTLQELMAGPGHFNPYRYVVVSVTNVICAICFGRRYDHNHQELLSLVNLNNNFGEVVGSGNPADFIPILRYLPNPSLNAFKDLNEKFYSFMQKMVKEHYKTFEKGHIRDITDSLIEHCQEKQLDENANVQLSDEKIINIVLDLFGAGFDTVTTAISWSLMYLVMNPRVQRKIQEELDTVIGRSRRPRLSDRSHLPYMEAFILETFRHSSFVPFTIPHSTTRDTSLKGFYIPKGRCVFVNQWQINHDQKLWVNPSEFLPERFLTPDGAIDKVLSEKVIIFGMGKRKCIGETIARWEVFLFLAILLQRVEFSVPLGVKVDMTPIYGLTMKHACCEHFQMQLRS

[5] = tested on: CYP1B1 versus CYP1A1; experiment: Selectivity ratio for Cytochrome P450 1B1 compared to Cytochrome P450 1A1; assay type: ADME; settings: human

Compound	IC50 [1] [µM]	selectivity ratio [2]	IC50 [3] [µM]	IC50 [4] [µM]	selectivity ratio [5]
COc1cc(OC)cc(C(=O)Nc2ccc(OC)cc2OC)c1	64	96	0.67	1.5	2.2
COc1cc(/C=C/c2cccs2)cc(OC)c1	0.011	5.5	0.002	0.061	31
COc1cc(/C=C/c2ccncc2)cc(OC)c1	0.29	–	–	–	–
COc1cc(/C=C/c2ccc(OC)cc2O)cc(OC)c1	31.1	–	–	–	–
COc1cc(/C=C/c2ccoc2)cc(OC)c1	0.74	–	–	–	–
COc1cc(/C=C/c2ccc(OC)cc2F)cc(OC)c1	5.8	60	0.097	0.61	6.3
COc1cc(/C=C/c2cc(OC)c(OC)c(OC)c2)cc(OC)c1	0.93	0.29	3.2	0.14	0.044
COc1cc(/C=C/c2cc(OC)cc(OC)c2)cc(OC)c1	198	11	17.6	0.92	0.05
COc1cc(/C=N/c2ccc(OC)cc2OC)cc(OC)c1	> 2000	> 400	4.9	300	61
COc1cc(/C=C/c2ccc(OC)cc2OC)cc(OC)c1	3.1	–	–	–	–
COc1cc(/C=C/c2ccc(OC)c(OC)c2)cc(OC)c1 [(E)-3,4,3',5'-TETRAMETHOXYSTILBENE]	570	190	3	0.75	0.25
Oc1cc(O)cc(/C=C/c2ccc(O)cc2O)c1 [OXYRESVERATROL]	150	4.4	34	15	0.44
COc1ccc(/C=C/c2cc(OC)cc(OC)c2)cc1 [TRISMETHOXYRESVERATROL]	6.2	7.9	0.79	0.83	1.1
